Reference: patent US3954780A, “Propionic acid derivatives” (Innothera, priority 1970, dated 1976)
Converted amounts (≈) assume the structure as drawn. Counter-ions that a name gives are not always drawn.

Experiments:
isolated rat duodenum = assay: Spasmolytic activity of papaverinic type, barium chloride contracture; conditions: Tyrode 38°; for EC50: read-out: Spasmolytic activity Papaverinic type DE 50 (converted)
Method: a. To show activity of the papaverinic type, the contracturant used is barium chloride acting on the isolated rat duodenum.
The average activity of the substances studied has been effected by determining graphically their DE 30 and DE 50 these being expressed in μg for 20 ml of bath.

[1] = test system: isolated ileum of the guinea-pig; assay: Spasmolytic activity of atropinic type, acetylcholine chloride contracture; conditions: Tyrode 33°; for EC50: Cavia porcellus, read-out: Spasmolytic activity Atropinic type DE 50 (converted)
Excerpt: b. To show activity of atropinic type the contracturant used is acetylcholine chloride acting on the isolated ileum of the guinea-pig. […]

Structure (SMILES)	Spasmolytic activity Papaverinic type DE 30 (isolated rat duodenum)	EC50 (isolated rat duodenum)	EC50 [1]	Spasmolytic activity Atropinic type DE 30 [1]
C=CCC(Cc1csc2ccccc12)C(=O)OCCN(CC)CC (stereo not drawn) [Compound 1]	3.7 μg for 20 ml of bath	0.125 µg/mL (≈ 0.362 µM)		
C=CCC(Cc1csc2ccccc12)C(=O)OCCN1CCCC1 (stereo not drawn) [Compound 2]	12.0 μg for 20 ml of bath	1.15 µg/mL (≈ 3.35 µM)		
C=CCC(Cc1csc2ccccc12)C(=O)OCCN1CCCCC1 (stereo not drawn) [Compound 3]	18.0 μg for 20 ml of bath	2 µg/mL (≈ 5.59 µM)		
C=CCC(Cc1csc2ccccc12)C(=O)OCCCN1CCCC1 (stereo not drawn) [Compound 8]	42.0 μg for 20 ml of bath	4 µg/mL (≈ 11.2 µM)	4.5 µg/mL (≈ 12.6 µM)	55 μg/20 ml of bath
C=CCC(Cc1csc2ccccc12)C(=O)OCCCN1CCCCC1 (stereo not drawn) [Compound 9]	13.0 μg for 20 ml of bath	1 µg/mL (≈ 2.69 µM)		
C=CCC(Cc1csc2ccccc12)C(=O)OCCCN1CCCCCC1 (stereo not drawn) [Compound 10]	7.2 μg for 20 ml of bath	0.65 µg/mL (≈ 1.69 µM)		
CN(C)CCOC(=O)C(Cc1csc2ccccc12)c1ccccc1 (stereo not drawn) [Compound 12]	24.0 μg for 20 ml of bath	2.5 µg/mL (≈ 7.07 µM)	5 µg/mL (≈ 14.1 µM)	50 μg/20 ml of bath
CCN(CC)CCOC(=O)C(Cc1csc2ccccc12)c1ccccc1 (stereo not drawn) [Compound 13, N,N-diethylamino ethyl ester of α-phenyl-β-[(benzo(b)thienyl-3]propionic acid and its oxalate]	13.0 μg for 20 ml of bath	2.25 µg/mL	2.1 µg/mL	30 μg/20 ml of bath
O=C(OCCN1CCCC1)C(Cc1csc2ccccc12)c1ccccc1 (stereo not drawn) [Compound 14]	18.0 μg for 20 ml of bath	1.75 µg/mL (≈ 4.61 µM)	7 µg/mL (≈ 18.4 µM)	90 μg/20 ml of bath
O=C(OCCN1CCCCC1)C(Cc1csc2ccccc12)c1ccccc1 (stereo not drawn) [Compound 15]	45.0 μg for 20 ml of bath	3.5 µg/mL (≈ 8.89 µM)	2.25 µg/mL (≈ 5.72 µM)	26 μg/20 ml of bath
O=C(OCCN1CCOCC1)C(Cc1csc2ccccc12)c1ccccc1 (stereo not drawn) [Compound 16]	38.0 μg for 20 ml of bath	5.5 µg/mL (≈ 13.9 µM)	22.5 µg/mL (≈ 56.9 µM)	225 μg/20 ml of bath
CN(C)CCCOC(=O)C(Cc1csc2ccccc12)c1ccccc1 (stereo not drawn) [Compound 18]	8.0 μg for 20 ml of bath	1 µg/mL (≈ 2.72 µM)	1.75 µg/mL (≈ 4.76 µM)	22 μg/20 ml of bath
CCN(CC)CCCOC(=O)C(Cc1csc2ccccc12)c1ccccc1 (stereo not drawn) [Compound 19]	11.5 μg for 20 ml of bath	1.25 µg/mL (≈ 3.16 µM)		
O=C(OCCCN1CCCC1)C(Cc1csc2ccccc12)c1ccccc1 (stereo not drawn) [Compound 20]	8.0 μg for 20 ml of bath	0.95 µg/mL (≈ 2.41 µM)	2.75 µg/mL (≈ 6.99 µM)	25 μg/20 ml of bath
O=C(OCCCN1CCCCC1)C(Cc1csc2ccccc12)c1ccccc1 (stereo not drawn) [Compound 21]	8.0 μg for 20 ml of bath	0.95 µg/mL (≈ 2.33 µM)	4 µg/mL (≈ 9.81 µM)	40 μg/20 ml of bath
O=C(OCCCN1CCCCCC1)C(Cc1csc2ccccc12)c1ccccc1 (stereo not drawn) [Compound 22]	7.0 μg for 20 ml of bath	0.8 µg/mL (≈ 1.9 µM)		
CC(CN1CCCCC1)OC(=O)C(Cc1csc2ccccc12)c1ccccc1 (stereo not drawn) [Compound 23]	3.1 μg for 20 ml of bath	0.35 µg/mL (≈ 0.859 µM)	7 µg/mL (≈ 17.2 µM)	50 μg/20 ml of bath
CN(C)CCOC(=O)C(Cc1ccccc1)Cc1csc2ccccc12 (stereo not drawn) [Compound 24]	10.0 μg for 20 ml of bath	1.25 µg/mL (≈ 3.4 µM)	10 µg/mL (≈ 27.2 µM)	90 μg/20 ml of bath
CCN(CC)CCOC(=O)C(Cc1ccccc1)Cc1csc2ccccc12 (stereo not drawn) [Compound 25]	9.0 μg for 20 ml of bath	0.9 µg/mL (≈ 2.28 µM)	6 µg/mL (≈ 15.2 µM)	60 μg/20 ml of bath
O=C(OCCN1CCCC1)C(Cc1ccccc1)Cc1csc2ccccc12 (stereo not drawn) [Compound 26]	5.5 μg for 20 ml of bath	0.6 µg/mL (≈ 1.52 µM)	7 µg/mL (≈ 17.8 µM)	50 μg/20 ml of bath
